# Results taken from publication PMC7156724, “Potent BRD4 inhibitor suppresses cancer cell-macrophage interaction” (Nature Communications, 2020).
# Values joined by “and” are separate entries in the source; they are usually repeats but may differ in a detail not shown here. Identical values can stand only once. Like-named read-outs stand apart in the source and are kept apart here.
# Experiment: Concentration in lungs and tumors of H526 xenograft model
# Format: in vivo, mouse
# Conditions: for concentration at 8 h / concentration at 24 h: female, BALB/c nude, mouse, oral
# From the text: Supplementary Figure 7. Pharmacokinetic profile of NHWD-870 using mouse and rat models. […]
# 98615821 on day 21. These mice were administrated the indicated drug daily for 21 days. Data are represented as mean ± SEM of 3 independent experiments. Source data are provided as a Source Data file. […]
# 9. In vivo pharmacokinetics study. Mouse and SD rat models were used to evaluate pharmacokinetic property of NHWD-870. NHWD-870 was administrated […]
# Concentration of drugs in plasma, lung and tumor tissues were measured for the indicated time. […]
compound,measurement,setting,value
Cc1nnn(C)c1-c1cnc2c3c4cnn(C)c4ccc3n([C@H](c3ccccc3)C3CCOCC3)c2c1 [NHWD-870],Analyte Concentration in Lung,"Group 2, 3 mg/kg QD, 24h, individual animals, LLOQ 10 ng/g",BQL
same,Analyte Concentration in Tumor,"Group 2, 3 mg/kg QD, 24h, individual animals, dilution factor 10",33.7 ng/g and 23 ng/g and 54.8 ng/g
same,Analyte Concentration in Tumor Homogenate,"Group 3, 1.5 mg/kg QD, 8h, individual animals",19.2 ng/mL and 22.1 ng/mL
same,Analyte Concentration in Lung Homogenate,"Group 3, 1.5 mg/kg QD, 8h, individual animals, LLOQ 1 ng/mL",6.31 ng/mL and 9.86 ng/mL
same,Analyte Concentration in Lung,"Group 3, 1.5 mg/kg QD, 8h, individual animals, LLOQ 10 ng/g",63.1 ng/g and 98.6 ng/g
same,Analyte Concentration in Tumor,"Group 3, 1.5 mg/kg QD, 8h, individual animals, dilution factor 10",192 ng/g and 221 ng/g
same,Analyte Concentration in Tumor Homogenate,"Group 3, 1.5 mg/kg QD, 24h, individual animals",2.34 ng/mL and 1.67 ng/mL
same,Analyte Concentration in Lung Homogenate,"Group 3, 1.5 mg/kg QD, 24h, individual animals, LLOQ 1 ng/mL",BQL
same,Analyte Concentration in Lung,"Group 3, 1.5 mg/kg QD, 24h, individual animals, LLOQ 10 ng/g",BQL
same,Analyte Concentration in Tumor,"Group 3, 1.5 mg/kg QD, 24h, individual animals, dilution factor 10",23.4 ng/g and 16.7 ng/g
same,Analyte Concentration in Tumor Homogenate,"Group 4, 3 mg/kg Q2D, 8h, individual animals",82.3 ng/mL and 21.5 ng/mL and 23.8 ng/mL
same,Analyte Concentration in Lung Homogenate,"Group 4, 3 mg/kg Q2D, 8h, individual animals, LLOQ 1 ng/mL",49.2 ng/mL and 8.34 ng/mL and 15.8 ng/mL
same,Analyte Concentration in Lung,"Group 4, 3 mg/kg Q2D, 8h, individual animals, LLOQ 10 ng/g",492 ng/g and 83.4 ng/g and 158 ng/g
same,Analyte Concentration in Tumor,"Group 4, 3 mg/kg Q2D, 8h, individual animals, dilution factor 10",823 ng/g and 215 ng/g and 238 ng/g
same,Analyte Concentration in Tumor Homogenate,"Group 4, 3 mg/kg Q2D, 24h, individual animals",6.96 ng/mL and 4.06 ng/mL and 14.6 ng/mL
same,Analyte Concentration in Lung Homogenate,"Group 4, 3 mg/kg Q2D, 24h, individual animals, LLOQ 1 ng/mL",6.96 ng/mL and BQL and 2.42 ng/mL
same,Analyte Concentration in Lung,"Group 4, 3 mg/kg Q2D, 24h, individual animals, LLOQ 10 ng/g",69.6 ng/g and BQL and 24.2 ng/g
same,Analyte Concentration in Tumor,"Group 4, 3 mg/kg Q2D, 24h, individual animals, dilution factor 10",69.6 ng/g and 40.6 ng/g and 146 ng/g
same,penetration into the lungs and SCLC tumors,"H526 xenograft model, oral 3 mg/kg daily for 21 days",good penetration into the lungs and SCLC tumors
same,concentration at 8 h,"lung homogenate, 1.5 mg/kg, Group 3, 1.5 mg/kg QD, 8h, individual animals, LLOQ 1 ng/mL, read-out: Analyte Concentration in Lung Homogenate",5.65 ng/mL
same,concentration at 24 h,"lung homogenate, 3 mg/kg, Group 2, 3 mg/kg QD, 24h, individual animals, LLOQ 1 ng/mL, read-out: Analyte Concentration in Lung Homogenate",1.12 ng/mL
same,concentration at 8 h,"lung, 1.5 mg/kg, Group 3, 1.5 mg/kg QD, 8h, individual animals, LLOQ 10 ng/g, read-out: Analyte Concentration in Lung",56.5 ng/g
same,concentration at 8 h,"lung, 1.5 mg/kg, Group 3, 1.5 mg/kg QD, 8h, mean, read-out: Mean Concentration in Lung",72.7 ng/g
same,concentration at 8 h,"lung, 3 mg/kg, Group 2, 3 mg/kg QD, 8h, mean, read-out: Mean Concentration in Lung",89.4 ng/g
same,concentration at 24 h,"lung, 3 mg/kg, Group 2, 3 mg/kg QD, 24h, individual animals, LLOQ 10 ng/g, read-out: Analyte Concentration in Lung",11.2 ng/g
same,concentration at 8 h,"lung, 3 mg/kg, Group 4, 3 mg/kg Q2D, 8h, mean, read-out: Mean Concentration in Lung",244 ng/g
same,concentration at 24 h,"lung, 3 mg/kg, Group 4, 3 mg/kg Q2D, 24h, mean, read-out: Mean Concentration in Lung",46.9 ng/g
same,concentration at 8 h,"tumor homogenate, 1.5 mg/kg, Group 3, 1.5 mg/kg QD, 8h, individual animals, read-out: Analyte Concentration in Tumor Homogenate",14.3 ng/mL
same,concentration at 24 h,"tumor homogenate, 1.5 mg/kg, Group 3, 1.5 mg/kg QD, 24h, individual animals, read-out: Analyte Concentration in Tumor Homogenate",2.06 ng/mL
same,concentration at 8 h,"tumor, 1.5 mg/kg, Group 3, 1.5 mg/kg QD, 8h, individual animals, dilution factor 10, read-out: Analyte Concentration in Tumor",143 ng/g
same,concentration at 8 h,"tumor, 1.5 mg/kg, Group 3, 1.5 mg/kg QD, 8h, mean, read-out: Mean Concentration in Tumor",185 ng/g
same,concentration at 24 h,"tumor, 1.5 mg/kg, Group 3, 1.5 mg/kg QD, 24h, individual animals, dilution factor 10, read-out: Analyte Concentration in Tumor",20.6 ng/g
same,concentration at 24 h,"tumor, 1.5 mg/kg, Group 3, 1.5 mg/kg QD, 24h, mean, read-out: Mean Concentration in Tumor",20.2 ng/g
same,concentration at 8 h,"tumor, 3 mg/kg, Group 2, 3 mg/kg QD, 8h, mean, read-out: Mean Concentration in Tumor",270 ng/g
same,concentration at 24 h,"tumor, 3 mg/kg, Group 2, 3 mg/kg QD, 24h, mean, read-out: Mean Concentration in Tumor",37.2 ng/g
same,concentration at 8 h,"tumor, 3 mg/kg, Group 4, 3 mg/kg Q2D, 8h, mean, read-out: Mean Concentration in Tumor",425 ng/g
same,concentration at 24 h,"tumor, 3 mg/kg, Group 4, 3 mg/kg Q2D, 24h, mean, read-out: Mean Concentration in Tumor",85.4 ng/g
